The values below come from US9447038B2 (SANOFI, priority 2012, dated 2016).

For one assay, the target named is human CXCR3-A receptor (Homo sapiens (Human), UniProt P49682). Nature of the assay: 125I-CXCL10 competition radioligand binding assay.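 Also: One-hour incubation of membranes with tracer, bound radioligand separated by glass fibre filtration, IC50 derived from four-parameter nonlinear fit of competition curves.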
Sequence of human CXCR3-A receptor (P49682 whole entry): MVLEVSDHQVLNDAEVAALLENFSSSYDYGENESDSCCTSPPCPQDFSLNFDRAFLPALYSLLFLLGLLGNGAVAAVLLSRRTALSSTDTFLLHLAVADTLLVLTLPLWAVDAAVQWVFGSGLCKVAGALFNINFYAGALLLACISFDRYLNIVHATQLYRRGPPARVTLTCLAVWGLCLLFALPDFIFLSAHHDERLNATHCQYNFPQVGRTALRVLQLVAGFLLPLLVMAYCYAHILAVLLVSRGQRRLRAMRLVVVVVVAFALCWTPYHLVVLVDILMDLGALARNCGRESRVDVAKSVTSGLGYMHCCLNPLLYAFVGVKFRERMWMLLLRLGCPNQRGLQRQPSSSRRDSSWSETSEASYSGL
Settings: not given
What is called IC50 is the concentration that inhibits the measured activity by half. With `CCCCN(Cc1ccc(OCCN2C(=O)CCC2=O)c(OC)c1)C(CC(=O)O)c1ccc(Cl)cc1` (stereo not drawn) [Example 38, 3-(Butyl-{4-[2-(2,5-dioxo-pyrrolidin-1-yl)-ethoxy]-3-methoxy-benzyl}-amino)-3-(4-chloro-phenyl)-propionic acid], the half-maximal inhibitory concentration (IC50) was found to be 45 nM.

The same assay, now with this note: displacement of 125I-CXCL10 from membranes of CHO cells expressing human recombinant CXCR3-A.
Regarding `O=C(O)C[C@@H](c1ccc(Cl)cc1)N(Cc1ccc(OCCN2C(=O)CCC2=O)c(Cl)c1)CC1CCC1` [Example 104, (S)-3-({3-Chloro-4-[2-(2,5-dioxo-pyrrolidin-1-yl)-ethoxy]-benzyl}-cyclobutylmethyl-amino)-3-(4-chloro-phenyl)-propionic acid], the IC50 was determined as 145 nM. Same read-out and setting: next, `CCCN(Cc1ccc(OCCN2C(=O)CCC2=O)c(C)c1)C(CC(=O)O)c1ccc(Cl)c(F)c1` (stereo not drawn) [Example 75, 3-(4-Chloro-3-fluoro-phenyl)-3-({4-[2-(2,5-dioxo-pyrrolidin-1-yl)-ethoxy]-3-methyl-benzyl}-propyl-amino)-propionic acid]: 25 nM. Take `CCCN(Cc1ccc(OCCN2C(=O)CCC2=O)c(OC)c1)C(CC(=O)O)c1ccc(Cl)c(F)c1` (stereo not drawn) [Example 41, 3-(4-Chloro-3-fluoro-phenyl)-3-({4-[2-(2,5-dioxo-pyrrolidin-1-yl)-ethoxy]-3-methoxy-benzyl}-propyl-amino)-propionic acid]: the half-maximal inhibitory concentration (IC50) came out at 107 nM. `Cc1cc(CN(CC2CC2)[C@@H](CC(=O)O)c2ccc(Cl)c(Cl)c2)ccc1OCCN1C(=O)CCC1=O` [Example 26, (S)-3-(Cyclopropylmethyl-{4-[2-(2,5-dioxo-pyrrolidin-1-yl)-ethoxy]-3-methyl-benzyl}-amino)-3-(3,4-dichloro-phenyl)-propionic acid]: the half-inhibitory concentration (IC50) stood at 39 nM. Turning to `CN1CC(=O)N(CCOc2ccc(CN(CC3CCCCC3)[C@H](CC(=O)O)c3ccc(Cl)cc3)cc2Cl)C1=O` [Example 202, (R)-3-({3-Chloro-4-[2-(3-methyl-2,5-dioxo-imidazolidin-1-yl)-ethoxy]-benzyl}-cyclohexylmethyl-amino)-3-(4-chloro-phenyl)-propionic acid], the concentration for half-maximal inhibition (IC50) amounted to 810 nM. Consider `CCN(Cc1ccc(OCCN2C(=O)CCC2=O)c(OC)c1)C(C(=O)O)c1ccc(Cl)cc1` (stereo not drawn) [Example 182, (4-Chloro-phenyl)-({4-[2-(2,5-dioxo-pyrrolidin-1-yl)-ethoxy]-3-methoxy-benzyl}-ethyl-amino)-acetic acid], for which the IC50 is 3900 nM. On to `COc1cc(CN(CC2CCCCC2)C(CC(=O)O)c2ccc(Cl)cc2)ccc1OCCN1C(=O)CCC1=O` (stereo not drawn) [Example 40, 3-(4-Chloro-phenyl)-3-(cyclohexylmethyl-{4-[2-(2,5-dioxo-pyrrolidin-1-yl)-ethoxy]-3-methoxy-benzyl}-amino)-propionic acid], for which the IC50 turned out to be 40 nM. On the same count and under the same terms, the value for `CCCN(Cc1ccc(CCCN2C(=O)CCC2=O)c(OC)c1)C(CC(=O)O)c1ccc(Cl)cc1` (stereo not drawn) [Example 133, 3-(4-Chloro-phenyl)-3-({4-[3-(2,5-dioxo-pyrrolidin-1-yl)-propyl]-3-methoxy-benzyl}-propyl-amino)-propionic acid] was 177 nM; that for `COc1cc(CN(CC(C)C)C2c3ccc(Cl)cc3CC2C(=O)O)ccc1OCCN1C(=O)CCC1=O` (stereo not drawn) [Example 170, 5-Chloro-1-({4-[2-(2,5-dioxo-pyrrolidin-1-yl)-ethoxy]-3-methoxy-benzyl}-isobutyl-amino)-indan-2-carboxylic acid] was 345 nM.

As to `Cc1cc(CN(CC2CC2)C(CC(=O)O)c2ccc3c(c2)CCO3)ccc1CCCN1C(=O)CCC1=O` (stereo not drawn) [Example 142, 3-(Cyclopropylmethyl-{4-[3-(2,5-dioxo-pyrrolidin-1-yl)-propyl]-3-methyl-benzyl}-amino)-3-(2,3-dihydro-benzofuran-5-yl)-propionic acid], the 50% inhibitory concentration (IC50) is 211 nM. Take `COc1cc(CN(CC2CCCCC2)C(CC(=O)O)c2ccc(Cl)c(Cl)c2)ccc1OCCN1C(=O)CCC1=O` (stereo not drawn) [Example 50, 3-(Cyclohexylmethyl-{4-[2-(2,5-dioxo-pyrrolidin-1-yl)-ethoxy]-3-methoxy-benzyl}-amino)-3-(3,4-dichloro-phenyl)-propionic acid]: the IC50 was 98 nM. As to `COc1cc(CN(C2CCC2)C(CC(=O)O)c2ccc(Cl)cc2)ccc1CCCN1C(=O)CCC1=O` (stereo not drawn) [Example 138, 3-(4-Chloro-phenyl)-3-(cyclobutyl-{4-[3-(2,5-dioxo-pyrrolidin-1-yl)-propyl]-3-methoxy-benzyl}-amino)-propionic acid], the IC50 amounted to 190 nM.

For the compound `COc1cc(CN(CC2CCCC2)C(CC(=O)O)c2ccc(Cl)cc2Cl)ccc1OCCN1C(=O)CCC1=O` (stereo not drawn) [Example 3, 3-(Cyclopentylmethyl-{4-[2-(2,5-dioxo-pyrrolidin-1-yl)-ethoxy]-3-methoxy-benzyl}-amino)-3-(2,4-dichloro-phenyl)-propionic acid], the IC50 was 120 nM. Regarding `CCc1cc(CN(CC2CCCC2)C(CC(=O)O)c2ccc(Cl)c(F)c2)ccc1OCCN1C(=O)CCC1=O` (stereo not drawn) [Example 94, 3-(4-Chloro-3-fluoro-phenyl)-3-(cyclopentylmethyl-{4-[2-(2,5-dioxo-pyrrolidin-1-yl)-ethoxy]-3-ethyl-benzyl}-amino)-propionic acid], the IC50 was 71 nM. For `CCCCN(Cc1ccc(OCCN2C(=O)CCC2=O)c(F)c1)C(CC(=O)O)c1ccc(Cl)cc1` (stereo not drawn) [Example 54, 3-(Butyl-{4-[2-(2,5-dioxo-pyrrolidin-1-yl)-ethoxy]-3-fluoro-benzyl}-amino)-3-(4-chloro-phenyl)-propionic acid], the IC50 stood at 306 nM.

For the compound `COc1cc(CN(CC2CCCC2)C(CC(=O)O)c2ccc3c(c2)CCO3)ccc1CCCN1C(=O)CCC1=O` (stereo not drawn) [Example 139, 3-(Cyclopentylmethyl-{4-[3-(2,5-dioxo-pyrrolidin-1-yl)-propyl]-3-methoxy-benzyl}-amino)-3-(2,3-dihydro-benzofuran-5-yl)-propionic acid], the IC50 amounted to 54 nM.

On to `Cc1cc(CN(CC2CCCCC2)[C@H](CC(=O)O)c2ccc(Cl)c(F)c2)ccc1OCCN1C(=O)CN(C)C1=O` [Example 35, (R)-3-(4-Chloro-3-fluoro-phenyl)-3-(cyclohexylmethyl-{3-methyl-4-[2-(3-methyl-2,5-dioxo-imidazolidin-1-yl)-ethoxy]-benzyl}-amino)-propionic acid], for which the half-maximal inhibitory concentration (IC50) worked out at 75 nM. For the compound `Cc1cc(CN(CC2CCCC2)C(CC(=O)O)c2ccc3c(c2)CCO3)ccc1OCCn1c(=O)ccn(C)c1=O` (stereo not drawn) [Example 160, 3-(Cyclopentylmethyl-{3-methyl-4-[2-(3-methyl-2,6-dioxo-3,6-dihydro-2H-pyrimidin-1-yl)-ethoxy]-benzyl}-amino)-3-(2,3-dihydro-benzofuran-5-yl)-propionic acid], the IC50 was determined as 81 nM. Consider `Cc1cc(CN(CC2CCCC2)[C@H](CC(=O)O)c2ccc(Cl)c(F)c2)ccc1OCCN1C(=O)CN(C)C1=O` [Example 33, (R)-3-(4-Chloro-3-fluoro-phenyl)-3-(cyclopentylmethyl-{3-methyl-4-[2-(3-methyl-2,5-dioxo-imidazolidin-1-yl)-ethoxy]-benzyl}-amino)-propionic acid], for which the IC50 was 86 nM. Regarding `Cc1cc(CN(CC2CCCCC2)[C@@H](CC(=O)O)c2ccc(Cl)cc2)ccc1OCCN1C(=O)CN(C)C1=O` [Example 30, (S)-3-(4-Chloro-phenyl)-3-(cyclohexylmethyl-{3-methyl-4-[2-(3-methyl-2,5-dioxo-imidazolidin-1-yl)-ethoxy]-benzyl}-amino)-propionic acid], the half-maximal inhibitory concentration (IC50) is 55 nM. For the compound `CCCN(Cc1ccc(OCCN2C(=O)CCC2=O)c(OC)c1)C(CC(=O)O)c1ccc(Cl)cc1` (stereo not drawn) [Example 37, 3-(4-Chloro-phenyl)-3-({4-[2-(2,5-dioxo-pyrrolidin-1-yl)-ethoxy]-3-methoxy-benzyl}-propyl-amino)-propionic acid], the IC50 worked out at 20 nM. Turning to `CCCN(Cc1ccc(OCCN2C(=O)CCC2=O)c(F)c1)[C@H](CC(=O)O)c1ccc(Cl)cc1` [Example 52, (R)-3-(4-Chloro-phenyl)-3-({4-[2-(2,5-dioxo-pyrrolidin-1-yl)-ethoxy]-3-fluoro-benzyl}-propyl-amino)-propionic acid], the IC50 came to 990 nM. With `CCCN(Cc1ccc(SCCN2C(=O)CCC2=O)c(OC)c1)C(CC(=O)O)c1ccc(Cl)c(Cl)c1` (stereo not drawn) [Example 192, 3-(3,4-Dichloro-phenyl)-3-({4-[2-(2,5-dioxo-pyrrolidin-1-yl)-ethylsulfanyl]-3-methoxy-benzyl}-propyl-amino)-propionic acid], the 50% inhibitory concentration (IC50) is 55 nM.

Regarding `CCc1cc(CN(CC(C)C)C(CC(=O)O)c2ccc(Cl)c(F)c2)ccc1OCCN1C(=O)CCC1=O` (stereo not drawn) [Example 92, 3-(4-Chloro-3-fluoro-phenyl)-3-({4-[2-(2,5-dioxo-pyrrolidin-1-yl)-ethoxy]-3-ethyl-benzyl}-isobutyl-amino)-propionic acid], the 50% inhibitory concentration (IC50) came out at 66 nM.

`COc1cc(CN(CC2CC2)C(CC(=O)O)c2ccc(Cl)cc2)ccc1OCCN1C(=O)CCC1=O` (stereo not drawn) [Example 36, 3-(4-Chloro-phenyl)-3-(cyclopropylmethyl-{4-[2-(2,5-dioxo-pyrrolidin-1-yl)-ethoxy]-3-methoxy-benzyl}-amino)-propionic acid]: the IC50 came to 20 nM.

For `CCCN(Cc1ccc(OCCN2C(=O)CCC2=O)c(CC)c1)C(CC(=O)O)c1ccc(Cl)c(F)c1` (stereo not drawn) [Example 91, 3-(4-Chloro-3-fluoro-phenyl)-3-({4-[2-(2,5-dioxo-pyrrolidin-1-yl)-ethoxy]-3-ethyl-benzyl}-propyl-amino)-propionic acid], the IC50 came to 56 nM. `COc1cc(CN(CC2CCCC2)C(CC(=O)O)c2ccc(Cl)c(F)c2)ccc1SCCN1C(=O)CCC1=O` (stereo not drawn) [Example 190, 3-(4-Chloro-3-fluoro-phenyl)-3-(cyclopentylmethyl-{4-[2-(2,5-dioxo-pyrrolidin-1-yl)-ethylsulfanyl]-3-methoxy-benzyl}-amino)-propionic acid]: the IC50 was determined as 62 nM. On the same count and under the same terms, next, `CN1CC(=O)N(CCOc2ccc(CN(CC3CCCC3)[C@H](CC(=O)O)c3ccc(Cl)cc3)cc2Cl)C1=O` [Example 201, (R)-3-({3-Chloro-4-[2-(3-methyl-2,5-dioxo-imidazolidin-1-yl)-ethoxy]-benzyl}-cyclopentylmethyl-amino)-3-(4-chloro-phenyl)-propionic acid]: 886 nM; `CCCCN(Cc1ccc(OCCN2C(=O)CCC2=O)c(OC)c1)C(C(=O)O)c1ccc(Cl)cc1` (stereo not drawn) [Example 184]: 336 nM.
